One compound from ChEMBL document CHEMBL4834484, “Identification of isoform/domain-selective fragments from the selection of DNA-encoded dynamic library” (Bioorg Med Chem, 2021) can be followed below.

What is called IC50 is the point on the concentration scale where inhibition reaches its midpoint. By Ki is commonly meant a measure of affinity in units of concentration, obtained from inhibition or displacement. One may read the Kd as the free concentration of one partner at which half of the binding sites on the other are occupied at equilibrium, for simple one-to-one binding.

In assay [1] the target is T1, NAD-dependent protein deacylase sirtuin-5, mitochondrial (Homo sapiens, UniProt Q9NXA8). As to the kind of experiment: Inhibition of human recombinant SIRT5 assessed as inhibition of substrate desuccinylation using Fluor de Lys-Succinyl green peptide as substrate in presence of NAD+ measured by fluorometric assay.
T1 sequence (Q9NXA8 whole entry): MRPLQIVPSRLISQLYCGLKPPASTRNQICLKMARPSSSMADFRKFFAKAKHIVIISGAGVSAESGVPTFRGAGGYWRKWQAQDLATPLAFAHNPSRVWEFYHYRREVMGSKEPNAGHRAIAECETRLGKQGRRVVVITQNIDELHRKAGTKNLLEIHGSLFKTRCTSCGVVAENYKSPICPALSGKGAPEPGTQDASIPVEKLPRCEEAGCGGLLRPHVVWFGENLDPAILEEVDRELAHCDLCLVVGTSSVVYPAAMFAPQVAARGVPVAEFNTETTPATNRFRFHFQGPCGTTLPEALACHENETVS
The target of assay [2] is T1, NAD-dependent protein deacylase sirtuin-5, mitochondrial. As to the kind of experiment: Binding affinity to chip-immobilized recombinant human SIRT5 measured after 300 secs by surface plasmon resonance method. Background: Surface plasmon resonance follows binding to a sensor surface in real time, without labels.

As for `CN(CCCN1c2ccccc2CCc2ccccc21)C(=O)CCCCCNC(=O)C[C@@H](Cc1ccccc1)NC(=O)OC(C)(C)C`, in assay [1], the IC50 was determined as 183 µM and the Ki was found to be 122 µM. In assay [2], the Kd was found to be 2.47 µM.
